Data reported in ChEMBL document CHEMBL6153041, “Discovery of High-Affinity SMARCA2/4 Bromodomain Ligands and Development of Potent and Exceptionally Selective SMARCA2 PROTAC Degraders” (J Med Chem, 2025).

Legend:
[1] = target: T1, von Hippel-Lindau disease tumor suppressor/SWI/SNF-related matrix-associated actin-dependent regulator of chromatin subfamily A member 4 (Homo sapiens, UniProt P51532+P40337); assay: PROTAC activity at VHL1/SMARCA4 in human genetically modified Hela cells assessed as maximal degradation measured after 8 hrs incubation by Nano-Glo HiBiT Lytic Detection Assay relative to control; type: cell-based
Target sequence in this assay (P40337 whole entry, looked up): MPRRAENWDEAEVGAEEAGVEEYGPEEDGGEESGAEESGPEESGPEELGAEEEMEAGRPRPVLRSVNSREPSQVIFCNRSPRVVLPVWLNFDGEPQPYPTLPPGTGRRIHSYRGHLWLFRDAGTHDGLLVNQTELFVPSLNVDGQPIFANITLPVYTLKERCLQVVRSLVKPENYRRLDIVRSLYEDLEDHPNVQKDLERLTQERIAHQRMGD
Target sequence in this assay (P51532 whole entry, looked up): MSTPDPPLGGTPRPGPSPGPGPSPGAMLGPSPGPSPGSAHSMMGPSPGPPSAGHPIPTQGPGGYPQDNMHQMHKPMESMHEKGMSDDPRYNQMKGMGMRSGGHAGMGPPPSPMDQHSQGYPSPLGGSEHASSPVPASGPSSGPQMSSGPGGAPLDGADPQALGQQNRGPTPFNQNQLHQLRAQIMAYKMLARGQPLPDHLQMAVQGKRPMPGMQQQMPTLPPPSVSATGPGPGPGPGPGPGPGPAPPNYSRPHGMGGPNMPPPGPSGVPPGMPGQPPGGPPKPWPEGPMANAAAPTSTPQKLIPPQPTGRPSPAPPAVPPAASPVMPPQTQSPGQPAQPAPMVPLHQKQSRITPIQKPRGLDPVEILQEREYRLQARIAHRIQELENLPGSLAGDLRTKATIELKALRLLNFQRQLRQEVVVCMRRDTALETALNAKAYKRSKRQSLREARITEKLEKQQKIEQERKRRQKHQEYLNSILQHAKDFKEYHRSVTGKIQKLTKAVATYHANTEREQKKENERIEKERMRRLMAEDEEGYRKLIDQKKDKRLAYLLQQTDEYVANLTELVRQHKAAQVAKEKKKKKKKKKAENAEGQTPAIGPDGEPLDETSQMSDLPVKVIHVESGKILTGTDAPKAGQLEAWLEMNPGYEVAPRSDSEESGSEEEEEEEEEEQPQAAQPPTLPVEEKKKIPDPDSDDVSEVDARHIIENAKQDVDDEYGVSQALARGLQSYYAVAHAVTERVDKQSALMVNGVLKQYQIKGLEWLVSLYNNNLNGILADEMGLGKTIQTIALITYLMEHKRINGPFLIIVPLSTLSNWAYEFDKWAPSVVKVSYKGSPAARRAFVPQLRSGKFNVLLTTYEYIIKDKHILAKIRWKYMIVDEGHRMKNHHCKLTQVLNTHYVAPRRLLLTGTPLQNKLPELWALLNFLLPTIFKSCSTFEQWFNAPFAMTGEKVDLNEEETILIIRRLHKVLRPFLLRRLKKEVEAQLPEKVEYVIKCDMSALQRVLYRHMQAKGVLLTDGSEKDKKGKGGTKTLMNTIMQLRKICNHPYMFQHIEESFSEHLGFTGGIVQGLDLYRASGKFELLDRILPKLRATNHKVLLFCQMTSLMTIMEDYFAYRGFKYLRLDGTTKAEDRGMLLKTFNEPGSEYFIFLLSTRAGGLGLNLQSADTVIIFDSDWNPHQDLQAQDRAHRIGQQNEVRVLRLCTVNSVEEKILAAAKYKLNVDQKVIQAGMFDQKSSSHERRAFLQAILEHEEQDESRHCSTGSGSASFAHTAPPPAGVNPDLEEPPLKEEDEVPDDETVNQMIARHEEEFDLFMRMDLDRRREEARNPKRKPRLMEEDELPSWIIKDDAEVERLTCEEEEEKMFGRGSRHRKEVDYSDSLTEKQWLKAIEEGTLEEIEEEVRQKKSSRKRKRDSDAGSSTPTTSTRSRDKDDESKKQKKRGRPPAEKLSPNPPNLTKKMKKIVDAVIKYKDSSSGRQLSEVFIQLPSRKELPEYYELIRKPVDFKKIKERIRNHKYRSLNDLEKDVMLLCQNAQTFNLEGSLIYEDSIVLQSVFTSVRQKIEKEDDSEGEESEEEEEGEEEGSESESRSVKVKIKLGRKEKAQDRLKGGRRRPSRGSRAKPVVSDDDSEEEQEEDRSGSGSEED

[2] = target: T1, von Hippel-Lindau disease tumor suppressor/SWI/SNF-related matrix-associated actin-dependent regulator of chromatin subfamily A member 4; assay: PROTAC activity at VHL1/SMARCA4 in human genetically modified Hela cells assessed as maximal degradation measured after 24 hrs incubation by Nano-Glo HiBiT Lytic Detection Assay relative to control; type: cell-based
Target sequence in this assay (P40337 whole entry, looked up): as the sequence (P40337 whole entry, looked up) above
Target sequence in this assay (P51532 whole entry, looked up): as the sequence (P51532 whole entry, looked up) above

[3] = target: T2, von Hippel-Lindau disease tumor suppressor/SWI/SNF-related matrix-associated actin-dependent regulator of chromatin subfamily A member 2 (Homo sapiens, UniProt P51531+P40337); assay: PROTAC activity at VHL1/SMARCA2 in human genetically modified Hela cells assessed as maximal degradation measured after 24 hrs incubation by Nano-Glo HiBiT Lytic Detection Assay relative to control; type: cell-based
[4] = target: T2, von Hippel-Lindau disease tumor suppressor/SWI/SNF-related matrix-associated actin-dependent regulator of chromatin subfamily A member 2; assay: PROTAC activity at VHL1/SMARCA2 in human NCI-H1792 cells assessed as maximal degradation measured after 24 hrs incubation by Western blot analysis relative to control; type: cell-based
[5] = target: T1, von Hippel-Lindau disease tumor suppressor/SWI/SNF-related matrix-associated actin-dependent regulator of chromatin subfamily A member 4; assay: PROTAC activity at VHL1/SMARCA4 in human NCI-H1792 cells assessed as maximal degradation measured after 24 hrs incubation by Western blot analysis relative to control; type: cell-based
Target sequence in this assay (P40337 whole entry, looked up): as the sequence (P40337 whole entry, looked up) above
Target sequence in this assay (P51532 whole entry, looked up): as the sequence (P51532 whole entry, looked up) above

SK-MEL-28 [6] = assay: Anticancer activity against human SK-MEL-28 cells harbouring wild type SMARCA4 assessed as maximal inhibition of cell growth measured after 7 days incubation by WST-8 assay relative to control; type: functional; settings: time 7 day
[7] = target: T1, von Hippel-Lindau disease tumor suppressor/SWI/SNF-related matrix-associated actin-dependent regulator of chromatin subfamily A member 4; assay: PROTAC activity at VHL1/SMARCA4 mutant in human SK-MEL-5 cells assessed as degradation measured after 24 hrs incubation by Western blot analysis; type: cell-based
SK-MEL-5 [8] = assay: Anticancer activity against SMARCA4 deficient human SK-MEL-5 cells assessed as maximal inhibition of cell growth measured after 7 days incubation by WST-8 assay relative to control; type: functional; settings: time 7 day
[9] = target: T1, von Hippel-Lindau disease tumor suppressor/SWI/SNF-related matrix-associated actin-dependent regulator of chromatin subfamily A member 4; assay: PROTAC activity at VHL1/SMARCA4 in human genetically modified Hela cells assessed as degradation measured after 48 hrs incubation by Nano-Glo HiBiT Lytic Detection Assay; type: cell-based
[10] = target: T2, von Hippel-Lindau disease tumor suppressor/SWI/SNF-related matrix-associated actin-dependent regulator of chromatin subfamily A member 2; assay: PROTAC activity at VHL1/SMARCA2 in human genetically modified Hela cells assessed as degradation measured after 24 hrs incubation by Nano-Glo HiBiT Lytic Detection Assay; type: cell-based
Target sequence in this assay (P51531 whole entry): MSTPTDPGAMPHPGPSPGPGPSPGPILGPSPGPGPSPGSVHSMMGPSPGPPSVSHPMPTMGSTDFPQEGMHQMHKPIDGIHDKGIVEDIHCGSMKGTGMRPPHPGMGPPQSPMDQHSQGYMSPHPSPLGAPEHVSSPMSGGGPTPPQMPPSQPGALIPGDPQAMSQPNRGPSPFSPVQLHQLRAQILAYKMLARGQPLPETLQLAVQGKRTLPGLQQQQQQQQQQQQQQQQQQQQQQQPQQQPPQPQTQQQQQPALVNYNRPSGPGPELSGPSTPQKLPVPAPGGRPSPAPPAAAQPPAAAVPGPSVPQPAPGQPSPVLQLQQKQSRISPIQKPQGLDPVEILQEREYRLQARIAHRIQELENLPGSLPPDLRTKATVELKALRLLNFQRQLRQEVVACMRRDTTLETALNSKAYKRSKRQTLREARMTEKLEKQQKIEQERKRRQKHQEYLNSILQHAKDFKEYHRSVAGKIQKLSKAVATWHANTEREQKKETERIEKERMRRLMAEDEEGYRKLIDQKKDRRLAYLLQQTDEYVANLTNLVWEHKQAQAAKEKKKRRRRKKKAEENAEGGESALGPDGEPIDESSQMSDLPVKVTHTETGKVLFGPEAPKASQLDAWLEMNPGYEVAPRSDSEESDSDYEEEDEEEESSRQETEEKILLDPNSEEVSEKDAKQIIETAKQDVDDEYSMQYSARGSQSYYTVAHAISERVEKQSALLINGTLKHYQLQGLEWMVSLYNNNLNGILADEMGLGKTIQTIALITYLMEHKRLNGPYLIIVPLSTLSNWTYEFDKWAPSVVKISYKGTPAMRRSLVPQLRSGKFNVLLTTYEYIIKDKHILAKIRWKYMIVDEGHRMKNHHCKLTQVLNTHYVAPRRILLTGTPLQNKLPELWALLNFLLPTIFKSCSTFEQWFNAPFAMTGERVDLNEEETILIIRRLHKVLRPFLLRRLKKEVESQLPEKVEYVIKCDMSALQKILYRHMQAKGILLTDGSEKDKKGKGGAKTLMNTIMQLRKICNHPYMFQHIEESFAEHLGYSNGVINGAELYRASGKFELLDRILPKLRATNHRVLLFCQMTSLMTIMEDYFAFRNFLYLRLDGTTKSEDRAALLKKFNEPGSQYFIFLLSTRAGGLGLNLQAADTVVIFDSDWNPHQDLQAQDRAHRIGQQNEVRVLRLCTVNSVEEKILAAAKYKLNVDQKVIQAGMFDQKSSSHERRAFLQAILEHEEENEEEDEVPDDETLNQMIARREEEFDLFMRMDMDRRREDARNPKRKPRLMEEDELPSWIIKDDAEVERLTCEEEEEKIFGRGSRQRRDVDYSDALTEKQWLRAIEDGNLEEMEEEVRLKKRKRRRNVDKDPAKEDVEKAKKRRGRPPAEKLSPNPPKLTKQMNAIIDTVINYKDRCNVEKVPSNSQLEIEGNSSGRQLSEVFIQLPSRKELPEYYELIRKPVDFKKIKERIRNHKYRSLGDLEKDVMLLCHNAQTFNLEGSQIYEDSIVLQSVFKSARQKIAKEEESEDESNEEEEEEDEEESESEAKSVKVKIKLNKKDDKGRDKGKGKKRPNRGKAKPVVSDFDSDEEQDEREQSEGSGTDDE
Target sequence in this assay (P40337 whole entry): as the sequence (P40337 whole entry, looked up) above

[11] = Anticancer activity against SMARCA4 deficient human NCI-H838 cells assessed as maximal inhibition of cell growth measured after 7 days incubation by WST-8 assay relative to control; type: functional; settings: time 7 day
[12] = test system: von Hippel-Lindau disease tumor suppressor/SWI/SNF-related matrix-associated actin-dependent regulator of chromatin subfamily A member 4 (Homo sapiens), P51532+P40337 [UNDEFINED MUTATION]; assay: PROTAC activity at VHL1/SMARCA4 mutant in human SK-MEL-5 cells assessed as maximal degradation measured after 24 hrs incubation by Western blot analysis relative to control; type: cell-based
[13] = target: T2, von Hippel-Lindau disease tumor suppressor/SWI/SNF-related matrix-associated actin-dependent regulator of chromatin subfamily A member 2; assay: PROTAC activity at VHL1/SMARCA2 in human genetically modified Hela cells assessed as maximal degradation measured after 8 hrs incubation by Nano-Glo HiBiT Lytic Detection Assay relative to control; type: cell-based
SK-MEL-28 [14] = assay: Anticancer activity against human SK-MEL-28 cells harbouring wild type SMARCA4 assessed as inhibition of cell growth measured after 7 days incubation by WST-8 assay; type: functional; settings: SK-MEL-28, 168 h, time 7 day
[15] = target: T2, von Hippel-Lindau disease tumor suppressor/SWI/SNF-related matrix-associated actin-dependent regulator of chromatin subfamily A member 2; assay: PROTAC activity at VHL1/SMARCA2 in human NCI-H1792 cells assessed as degradation measured after 24 hrs incubation by Western blot analysis; type: cell-based
Target sequence in this assay (P51531 whole entry): as the sequence (P51531 whole entry) above
Target sequence in this assay (P40337 whole entry): as the sequence (P40337 whole entry, looked up) above

[16] = target: T1, von Hippel-Lindau disease tumor suppressor/SWI/SNF-related matrix-associated actin-dependent regulator of chromatin subfamily A member 4; assay: PROTAC activity at VHL1/SMARCA4 in human NCI-H1792 cells assessed as degradation measured after 24 hrs incubation by Western blot analysis; type: cell-based
[17] = target: T2, von Hippel-Lindau disease tumor suppressor/SWI/SNF-related matrix-associated actin-dependent regulator of chromatin subfamily A member 2; assay: PROTAC activity at VHL1/SMARCA2 in human genetically modified Hela cells assessed as degradation measured after 48 hrs incubation by Nano-Glo HiBiT Lytic Detection Assay; type: cell-based
Target sequence in this assay (P51531 whole entry): as the sequence (P51531 whole entry) above
Target sequence in this assay (P40337 whole entry): as the sequence (P40337 whole entry, looked up) above

[18] = target: T1, von Hippel-Lindau disease tumor suppressor/SWI/SNF-related matrix-associated actin-dependent regulator of chromatin subfamily A member 4; assay: PROTAC activity at VHL1/SMARCA4 in human genetically modified Hela cells assessed as degradation measured after 24 hrs incubation by Nano-Glo HiBiT Lytic Detection Assay; type: cell-based
[19] = test system: von Hippel-Lindau disease tumor suppressor/SWI/SNF-related matrix-associated actin-dependent regulator of chromatin subfamily A member 4 (Homo sapiens), P51532+P40337 [UNDEFINED MUTATION]; assay: PROTAC activity at VHL1/SMARCA4 mutant in human NCI-H838 cells assessed as maximal degradation measured after 24 hrs incubation by Western blot analysis relative to control; type: cell-based
[20] = target: T2, von Hippel-Lindau disease tumor suppressor/SWI/SNF-related matrix-associated actin-dependent regulator of chromatin subfamily A member 2; assay: PROTAC activity at VHL1/SMARCA2 in human genetically modified Hela cells assessed as maximal degradation measured after 4 hrs incubation by Nano-Glo HiBiT Lytic Detection Assay relative to control; type: cell-based
NCI-H1792 [21] = assay: Anticancer activity against human NCI-H1792 cells harbouring wild type SMARCA4 assessed as inhibition of cell growth measured after 7 days incubation by WST-8 assay; type: functional; settings: NCI-H1792, 168 h, time 7 day
[22] = target: T1, von Hippel-Lindau disease tumor suppressor/SWI/SNF-related matrix-associated actin-dependent regulator of chromatin subfamily A member 4; assay: PROTAC activity at VHL1/SMARCA4 in human genetically modified Hela cells assessed as maximal degradation measured after 48 hrs incubation by Nano-Glo HiBiT Lytic Detection Assay relative to control; type: cell-based
Target sequence in this assay (P40337 whole entry, looked up): as above
Target sequence in this assay (P51532 whole entry, looked up): as the sequence (P51532 whole entry, looked up) above

[23] = target: T2, von Hippel-Lindau disease tumor suppressor/SWI/SNF-related matrix-associated actin-dependent regulator of chromatin subfamily A member 2; assay: PROTAC activity at VHL1/SMARCA2 in human genetically modified Hela cells assessed as degradation measured after 4 hrs incubation by Nano-Glo HiBiT Lytic Detection Assay; type: cell-based
Target sequence in this assay (P51531 whole entry): as the sequence (P51531 whole entry) above
Target sequence in this assay (P40337 whole entry): as the sequence (P40337 whole entry, looked up) above

[24] = target: T2, von Hippel-Lindau disease tumor suppressor/SWI/SNF-related matrix-associated actin-dependent regulator of chromatin subfamily A member 2; assay: PROTAC activity at VHL1/SMARCA2 in human genetically modified Hela cells assessed as degradation measured after 8 hrs incubation by Nano-Glo HiBiT Lytic Detection Assay; type: cell-based
Target sequence in this assay (P51531 whole entry): as the sequence (P51531 whole entry) above
Target sequence in this assay (P40337 whole entry): as the sequence (P40337 whole entry, looked up) above

[25] = target: T1, von Hippel-Lindau disease tumor suppressor/SWI/SNF-related matrix-associated actin-dependent regulator of chromatin subfamily A member 4; assay: PROTAC activity at VHL1/SMARCA4 in human genetically modified Hela cells assessed as degradation measured after 8 hrs incubation by Nano-Glo HiBiT Lytic Detection Assay; type: cell-based
SK-MEL-5 [26] = assay: Anticancer activity against SMARCA4 deficient human SK-MEL-5 cells assessed as inhibition of cell growth measured after 7 days incubation by WST-8 assay; type: functional; settings: SK-MEL-5, 168 h, time 7 day
[27] = target: T1, von Hippel-Lindau disease tumor suppressor/SWI/SNF-related matrix-associated actin-dependent regulator of chromatin subfamily A member 4; assay: PROTAC activity at VHL1/SMARCA4 mutant in human NCI-H838 cells assessed as degradation measured after 24 hrs incubation by Western blot analysis; type: cell-based
[28] = target: T1, von Hippel-Lindau disease tumor suppressor/SWI/SNF-related matrix-associated actin-dependent regulator of chromatin subfamily A member 4; assay: PROTAC activity at VHL1/SMARCA4 in human genetically modified Hela cells assessed as maximal degradation measured after 4 hrs incubation by Nano-Glo HiBiT Lytic Detection Assay relative to control; type: cell-based
Target sequence in this assay (P40337 whole entry, looked up): as above
Target sequence in this assay (P51532 whole entry, looked up): as the sequence (P51532 whole entry, looked up) above

[29] = target: T1, von Hippel-Lindau disease tumor suppressor/SWI/SNF-related matrix-associated actin-dependent regulator of chromatin subfamily A member 4; assay: PROTAC activity at VHL1/SMARCA4 in human genetically modified Hela cells assessed as degradation measured after 4 hrs incubation by Nano-Glo HiBiT Lytic Detection Assay; type: cell-based
[30] = Anticancer activity against SMARCA4 deficient human NCI-H838 cells assessed as inhibition of cell growth measured after 7 days incubation by WST-8 assay; type: functional; settings: NCI-H838, 168 h, time 7 day
[31] = target: T2, von Hippel-Lindau disease tumor suppressor/SWI/SNF-related matrix-associated actin-dependent regulator of chromatin subfamily A member 2; assay: PROTAC activity at VHL1/SMARCA2 in human genetically modified Hela cells assessed as maximal degradation measured after 48 hrs incubation by Nano-Glo HiBiT Lytic Detection Assay relative to control; type: cell-based
NCI-H1792 [32] = assay: Anticancer activity against human NCI-H1792 cells harbouring wild type SMARCA4 assessed as maximal inhibition of cell growth measured after 7 days incubation by WST-8 assay relative to control; type: functional; settings: time 7 day
HeLa = assay: Selectivity ratio, ratio of DC50 for VHL1/SMARCA4 in human genetically modified Hela cells to VHL1/SMARCA2 in human genetically modified Hela cells; type: cell-based
[33] = target: SWI/SNF-related matrix-associated actin-dependent regulator of chromatin subfamily A member 4 (Homo sapiens, UniProt P51532); assay: Binding affinity to SMARCA4 (unknown origin) assessed as dissociation constant

Structure (SMILES)	Emax [1]	Emax [2]	Emax [3]	Emax [4]	Emax [5]	Imax (SK-MEL-28 [6])	DC50 [7]	Imax (SK-MEL-5 [8])	DC50 [9]	Imax [11]	Emax [12]	Emax [13]	GI50 (SK-MEL-28 [14])	DC50 [15]	DC50 [16]	DC50 [17]	DC50 [18]	Emax [19]	Emax [20]	GI50 (NCI-H1792 [21])	also measured
Cc1ncsc1-c1ccc([C@H](CCCCCN2CCC(c3ccc4c(c3)C3(CCCCC3)c3nc(=O)c5c(Cl)cccc5n3-4)CC2)NC(=O)[C@@H]2C[C@@H](O)CN2C(=O)[C@@H](NC(=O)C2(F)CC2)C(C)(C)C)cc1	96%	96%	97%	99%	99%	91%	0.0811 µM	96%	0.027 µM	92%	87%	97%	0.0248 µM	0.0017 µM	0.026 µM	0.004 µM	0.0033 µM	89%	97%	0.0105 µM	DC50 [10]: 0.0004 µM; Emax [22]: 98%; DC50 [23]: 0.01 µM; DC50 [24]: 0.006 µM; DC50 [25]: 0.027 µM; GI50 (SK-MEL-5 [26]): 0.0011 µM; DC50 [27]: 0.0762 µM; Emax [28]: 96%; DC50 [29]: 0.038 µM; GI50 [30]: 0.0105 µM; Emax [31]: 99%; Imax (NCI-H1792 [32]): 52%; Ratio (HeLa): 8
Cc1ncsc1-c1ccc([C@H](C)NC(=O)[C@@H]2C[C@@H](O)CN2C(=O)[C@@H](NC(=O)[C@H]2CC[C@H](CN3CCC(c4ccc5c(c4)-n4c(nc(=O)c6c(Cl)cccc64)C54CCCCC4)CC3)CC2)C(C)(C)C)cc1	< 10%	20%	89%	87%	< 30%	0%	0.0811 µM	93%	> 1 µM	79%	87%	85%	> 1 µM	0.0542 µM	> 1 µM	0.044 µM	> 10 µM	< 89%	76%	> 1 µM	Emax [22]: < 10%; DC50 [23]: 0.142 µM; DC50 [24]: 0.089 µM; DC50 [25]: > 1 µM; GI50 (SK-MEL-5 [26]): > 0.0223 µM; DC50 [27]: 0.0762 µM; Emax [28]: < 10%; DC50 [29]: > 1 µM; GI50 [30]: 0.142 µM; Emax [31]: 91%; Imax (NCI-H1792 [32]): 0%; Ratio (HeLa): > 1250
Cn1cc(-c2cc(-c3ccccc3O)nnc2N)cn1	–	–	–	–	–	–	–	–	–	–	–	–	–	–	–	–	–	–	–	–	Kd [33]: 0.0128 µM
